According to patent US8658661B2, “Oxadiazole inhibitors of leukotriene production” (Boehringer Ingelheim International GmbH, priority 2010, dated 2014):

Experiments:
[1] = tested on: synthesis of LTB4 in human whole blood; assay: Human whole blood assay (inhibition of LTB4 synthesis, calcimycin stimulated); assay type: cell-based; conditions: heparinized human whole blood, calcimycin 20 μM, plasma LTB4
How it was run: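 LTB4 in plasma was quantified by HTRF immunoassay. Before that, compound-treated heparinized whole blood (15 min, 37 °C) received 20 μM final calcimycin for a further 30 min at 37 °C, followed by centrifugation at 1500×g.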

[2] = biological target: T1, recombinant human FLAP protein (Homo sapiens, UniProt P20292); assay: FLAP binding assay (SPA, displacement of [125I]L-691,831); conditions: membranes of sf9 cells expressing recombinant human FLAP; [125I]L-691,831 probe; read-out: FLAP binding IC50
T1 construct: made in house; host or cells: Sf9 insect cells (100,000×g membrane pellet used)
T1 sequence (P20292 1-161): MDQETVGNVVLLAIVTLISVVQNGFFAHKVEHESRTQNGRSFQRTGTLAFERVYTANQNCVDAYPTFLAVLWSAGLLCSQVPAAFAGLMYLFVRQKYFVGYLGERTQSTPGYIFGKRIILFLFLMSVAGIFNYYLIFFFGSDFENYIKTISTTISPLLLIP
How it was run: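 Membranes from sf9 cells expressing human FLAP in pH 7.5 Tris buffer (MgCl2, EDTA, PMSF). Non-specific binding defined with 10 μM cold L-691,831.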

| SMILES | IC50 [1] | IC50 [2] |
| --- | --- | --- |
| CN(C)C(=O)Cn1cc(-c2nc(C(C)(c3ccc(-c4cnc(N)nc4)cc3)C3CC3)no2)cn1 (stereo not shown) [Example 59, 2-[4-(3-{1-[4-(2-aminopyrimidin-5-yl)phenyl]-1-cyclopropylethyl}-1,2,4-oxadiazol-5-yl)-1H-pyrazol-1-yl]-N,N-dimethylacetamide] | 76 nM | 1.1 nM |
| CC(C)C(C)(c1ccc(-c2cnc(N)nc2)cc1)c1noc(-c2ccn[nH]2)n1 (stereo not shown) [Example 19, 5-(4-{3-methyl-2-[5-(1H-pyrazol-5-yl)-1,2,4-oxadiazol-3-yl]butan-2-yl}phenyl)pyrimidin-2-amine] | 260 nM | 5.8 nM |
| CC(C)C(C)(c1ccc(-c2cnc(N)nc2)cc1)c1noc(-c2ccc(N)nc2)n1 (stereo not shown) [Example 151, 5-(4-{2-[5-(6-aminopyridin-3-yl)-1,2,4-oxadiazol-3-yl]-3-methylbutan-2-yl}phenyl)pyrimidin-2-amine] | 100 nM | 2.3 nM |
| CC(c1ccc(-c2ccc(N)nc2)cc1)(c1noc(N2CCC(O)CC2)n1)C1CC1 (stereo not shown) [Example 248, 1-(3-{1-[4-(6-Amino-pyridin-3-yl)-phenyl]-1-cyclopropyl-ethyl}-[1,2,4]oxadiazol-5-yl)-piperidin-4-ol] | 80 nM | 10 nM |
| COCCN(C)C(=O)Cn1cc(-c2nc([C@@](C)(c3ccc(-c4cnc(N)nc4)cc3)C3CC3)no2)cn1 [Example 194, 2-[4-(3-{(R)-1-[4-(2-Amino-pyrimidin-5-yl)-phenyl]-1-cyclopropyl-ethyl}-[1,2,4]oxadiazol-5-yl)-pyrazol-1-yl]-N-(2-methoxy-ethyl)-N-methyl-acetamide] | 96 nM | 6 nM |
| CC(C)C(C)(c1ccc(-c2cnc(N)nc2)cc1)c1noc(NCCS(C)(=O)=O)n1 (stereo not shown) [Example 87, 5-{4-[3-methyl-2-(5-{[2-(methylsulfonyl)ethyl]amino}-1,2,4-oxadiazol-3-yl)butan-2-yl]phenyl}pyrimidin-2-amine] | 970 nM | 41 nM |
| C[C@@](c1ccc(-c2cnc(N)nc2)cc1)(c1noc(-c2cnn(CCN)c2)n1)C1CC1 [Example 190, 5-[4-((R)-1-{5-[1-(2-Amino-ethyl)-1H-pyrazol-4-yl]-[1,2,4]oxadiazol-3-yl}-1-cyclopropyl-ethyl)-phenyl]-pyrimidin-2-ylamine] | 230 nM | 5.9 nM |
| Cn1cc(-c2nc([C@](C)(c3ccc(-c4cnc(N)nc4)cc3)C3CC3)no2)cn1 [Example 62, 5-(4-{(1S)-1-cyclopropyl-1-[5-(1-methyl-1H-pyrazol-4-yl)-1,2,4-oxadiazol-3-yl]ethyl}phenyl)pyrimidin-2-amine] | 350 nM | 18 nM |
| CC(C)C(c1ccc(-c2cnc(N)nc2)cc1)c1noc(-c2cnn(C)c2)n1 (stereo not shown) [Example 67, 5-(4-{2-methyl-1-[5-(1-methyl-1H-pyrazol-4-yl)-1,2,4-oxadiazol-3-yl]propyl}phenyl)pyrimidin-2-amine] | 190 nM | 6.2 nM |
| CC(C)(O)Cn1cc(-c2nc(C(C)(C)c3ccc(-c4cnc(N)nc4)cc3)no2)cn1 [Example 75, 1-[4-(3-{2-[4-(2-aminopyrimidin-5-yl)phenyl]propan-2-yl}-1,2,4-oxadiazol-5-yl)-1H-pyrazol-1-yl]-2-methylpropan-2-ol] | 260 nM | 23 nM |
| C[C@@](c1ccc(-c2cnc(N)nc2)cc1)(c1noc(-c2cnn(CCN3CCCC3)c2)n1)C1CC1 [Example 215, 5-[4-((R)-1-Cyclopropyl-1-{5-[1-(2-pyrrolidin-1-yl-ethyl)-1H-pyrazol-4-yl]-[1,2,4]oxadiazol-3-yl}-ethyl)-phenyl]-pyrimidin-2-ylamine] | 28 nM | 3.6 nM |
| C[C@@](c1ccc(-c2cnc(N)nc2)cc1)(c1noc(-c2cnn(C3COC3)c2)n1)C1CC1 [Example 54, 5-{4-[(1R)-1-cyclopropyl-1-{5-[1-(oxetan-3-yl)-1H-pyrazol-4-yl]-1,2,4-oxadiazol-3-yl}ethyl]phenyl}pyrimidin-2-amine] | 27 nM | 2.6 nM |
| CC(C)C(C)(c1ccc(-c2cnc(N)nc2)cc1)c1noc(N2CC(C)(O)C2)n1 (stereo not shown) [Example 203, 1-(3-{1-[4-(2-Amino-pyrimidin-5-yl)-phenyl]-1,2-dimethyl-propyl}-[1,2,4]oxadiazol-5-yl)-3-methyl-azetidin-3-ol] | 130 nM | 15 nM |
| Cn1cc(-c2nc(C(C)(c3ccc(-c4cnc5[nH]ccc5n4)cc3)C3CC3)no2)cn1 (stereo not shown) [Example 273, 2-(4-{1-Cyclopropyl-1-[5-(1-methyl-1H-pyrazol-4-yl)-[1,2,4]oxadiazol-3-yl]-ethyl}-phenyl)-5H-pyrrolo[2,3-b]pyrazine] | 56 nM | 6.1 nM |
| CN(C)C(=O)Cn1cc(-c2nc([C@](C)(c3ccc(-c4cnc(N)nc4)cc3)C3CCC3)no2)cn1 [Example 105, 2-[4-(3-{(1S)-1-[4-(2-aminopyrimidin-5-yl)phenyl]-1-cyclobutylethyl}-1,2,4-oxadiazol-5-yl)-1H-pyrazol-1-yl]-N,N-dimethylacetamide] | > 5000 nM | 490 nM |
| C[C@@](c1ccc(-c2cnc(N)nc2)cc1)(c1noc(-c2cn[nH]c2)n1)C1CC1 [Example 48, 5-(4-{(R)-1-cyclopropyl-1-[5-(1H-pyrazol-4-yl)-[1,2,4]oxadiazol-3-yl]-ethyl}-phenyl)-pyrimidin-2-ylamine] | 190 nM | 6.8 nM |
| CC(C)C(C)(c1ccc(-c2cnc(N)nc2)cc1)c1noc(-c2cnc(N3CCN(C)CC3)cn2)n1 (stereo not shown) [Example 163, 5-[4-(3-methyl-2-{5-[5-(4-methylpiperazin-1-yl)pyrazin-2-yl]-1,2,4-oxadiazol-3-yl}butan-2-yl)phenyl]pyrimidin-2-amine] | 30 nM | 0.74 nM |
| COCCOCc1nc(C(C)(c2ccc(-c3cnc(N)nc3)cc2)C(C)C)no1 (stereo not shown) [Example 229, 5-(4-{1-[5-(2-Methoxy-ethoxymethyl)-[1,2,4]oxadiazol-3-yl]-1,2-dimethyl-propyl}-phenyl)-pyrimidin-2-ylamine] | 550 nM | 99 nM |
| COCCn1cc(-c2nc(C(C)(C)c3ccc(-c4cnc(N)nc4)cc3)no2)cn1 [Example 76, 5-[4-(2-{5-[1-(2-methoxyethyl)-1H-pyrazol-4-yl]-1,2,4-oxadiazol-3-yl}propan-2-yl)phenyl]pyrimidin-2-amine] | 270 nM | 35 nM |
| COCCNc1nc(C(C)(c2ccc(-c3cnc(N)nc3)cc2)C(C)C)no1 (stereo not shown) [Example 81, 5-[4-(2-{5-[(2-methoxyethyl)amino]-1,2,4-oxadiazol-3-yl}-3-methylbutan-2-yl)phenyl]pyrimidin-2-amine] | 180 nM | 11 nM |
| Cc1ccc(-c2nc(C(C)(c3ccc(-c4cnc(N)nc4)cc3)C(C)C)no2)c(O)n1 (stereo not shown) [Example 157, 3-(3-{2-[4-(2-aminopyrimidin-5-yl)phenyl]-3-methylbutan-2-yl}-1,2,4-oxadiazol-5-yl)-6-methylpyridin-2-ol] | 760 nM | 3.3 nM |
| CC(=O)N1CCC(NC(=O)c2nc(C(C)(c3ccc(-c4cnc(N)nc4)cc3)C(C)C)no2)CC1 (stereo not shown) [Example 86, N-(1-acetylpiperidin-4-yl)-3-{2-[4-(2-aminopyrimidin-5-yl)phenyl]-3-methylbutan-2-yl}-1,2,4-oxadiazole-5-carboxamide] | > 5000 nM | 190 nM |
| CN(C)C(=O)Cn1cc(-c2nc([C@@](C)(c3ccc(-c4cnc(N)nc4)cc3)C3CC3)no2)cn1 (single isomer, unassigned) [Example 115] | 58 nM | 1.9 nM |
| COC1CCN(c2nc(C(C)(c3ccc(-c4cnc(N)nc4)cc3)C(C)C)no2)CC1 (stereo not shown) [Example 270, 5-(4-{1-[5-(4-Methoxy-piperidin-1-yl)-[1,2,4]oxadiazol-3-yl]-1,2-dimethyl-propyl}-phenyl)-pyrimidin-2-ylamine] | 96 nM | 9.8 nM |
| Cc1ncsc1-c1nc(C(C)(c2ccc(-c3cnc(N)nc3)cc2)C(C)C)no1 (stereo not shown) [Example 141, 5-(4-{3-methyl-2-[5-(4-methyl-1,3-thiazol-5-yl)-1,2,4-oxadiazol-3-yl]butan-2-yl}phenyl)pyrimidin-2-amine] | 530 nM | 1.5 nM |
| CC(C)C(C)(c1ccc(-c2cnc(N)nc2)cc1)c1noc(NCCN(C)C)n1 (stereo not shown) [Example 171, N-(3-{1-[4-(2-Amino-pyrimidin-5-yl)-phenyl]-1,2-dimethyl-propyl}-[1,2,4]oxadiazol-5-yl)-N′,N′-dimethyl-ethane-1,2-diamine] | 1900 nM | 220 nM |
| CN(c1nc(C(C)(c2ccc(-c3cnc(N)nc3)cc2)C2CC2)no1)C1CCC(O)CC1 (stereo not shown) [Example 297, 4-[(3-{1-[4-(2-Amino-pyrimidin-5-yl)-phenyl]-1-cyclopropyl-ethyl}-[1,2,4]oxadiazol-5-yl)-methyl-amino]-cyclohexanol] | 79 nM | 8.5 nM |
| CC(C)[C@](C)(c1ccc(-c2cnc(N)nc2)cc1)c1noc(-c2ccnn2C)n1 [Example 31, 5-(4-{(2R)-3-methyl-2-[5-(1-methyl-1H-pyrazol-5-yl)-1,2,4-oxadiazol-3-yl]butan-2-yl}phenyl)pyrimidin-2-amine] | 200 nM | 1.6 nM |
| CC(C)(O)CNc1ccc(-c2nc(C(C)(C)c3ccc(-c4cnc(N)nc4)cc3)no2)cn1 [Example 70, 1-{[5-(3-{2-[4-(2-aminopyrimidin-5-yl)phenyl]propan-2-yl}-1,2,4-oxadiazol-5-yl)pyridin-2-yl]amino}-2-methylpropan-2-ol] | 590 nM | 7.1 nM |
